# Reference: ChEMBL document CHEMBL4819006, “1,4,6-Trisubstituted imidazo[4,5-c]pyridines as inhibitors of Bruton's tyrosine kinase” (Eur J Med Chem, 2021)
# Calls of active or inactive are those of the source. The rule behind the calls is not given here.
# Tests used:
# [1] = target: T1, Mitogen-activated protein kinase; ERK1/ERK2 (Homo sapiens) (UniProt P27361+P28482); test: Inhibition of ERK1/2 in human Ramos cells assessed as reduction in ERK1/2 phosphorylation at 0.125 to 1 uM measured after 24 hrs by western blot assay; assay type: cell-based; conditions: dose 0.125-1 µM
# [2] = target: T1, Mitogen-activated protein kinase; ERK1/ERK2 (Homo sapiens); test: Inhibition of ERK1/2 in human UPF7U cells assessed as reduction in ERK1/2 phosphorylation at 0.125 to 1 uM measured after 24 hrs by western blot assay; assay type: cell-based; conditions: dose 0.125-1 µM
# T1 sequence (P27361 whole entry, looked up): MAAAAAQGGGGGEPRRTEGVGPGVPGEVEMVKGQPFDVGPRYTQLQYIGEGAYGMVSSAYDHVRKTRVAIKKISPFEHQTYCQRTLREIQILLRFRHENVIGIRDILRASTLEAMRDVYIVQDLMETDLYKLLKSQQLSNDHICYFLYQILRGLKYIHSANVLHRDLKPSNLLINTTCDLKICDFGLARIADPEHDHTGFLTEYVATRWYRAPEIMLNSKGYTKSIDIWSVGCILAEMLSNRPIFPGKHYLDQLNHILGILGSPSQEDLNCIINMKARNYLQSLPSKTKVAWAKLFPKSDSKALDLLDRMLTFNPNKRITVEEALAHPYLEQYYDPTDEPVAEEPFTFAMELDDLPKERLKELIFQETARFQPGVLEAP
# T1 sequence (P28482 whole entry, looked up): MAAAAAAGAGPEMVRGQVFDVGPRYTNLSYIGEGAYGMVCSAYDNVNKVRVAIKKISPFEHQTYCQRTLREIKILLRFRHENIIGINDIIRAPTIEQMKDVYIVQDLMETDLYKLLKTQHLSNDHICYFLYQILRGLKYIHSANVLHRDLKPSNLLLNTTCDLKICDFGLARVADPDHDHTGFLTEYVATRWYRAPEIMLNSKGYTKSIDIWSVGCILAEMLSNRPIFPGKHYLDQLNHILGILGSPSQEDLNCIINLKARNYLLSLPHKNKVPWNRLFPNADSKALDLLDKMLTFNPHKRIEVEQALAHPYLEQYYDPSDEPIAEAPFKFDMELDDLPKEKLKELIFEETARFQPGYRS
smiles,measurement,setting,value
c1cn2cc(-c3ccc4cn[nH]c4c3)nc(Nc3ccc(N4CCOCC4)cc3)c2n1,inhibition,[1],Active
same,inhibition,[2],Active
